{"source": "ChEMBL document CHEMBL5120867", "about": "“Hernandezine Regulates Proliferation and Autophagy-Induced Apoptosis in Melanoma Cells” (J Nat Prod, 2022)", "type_in_all_cases": "functional", "key": {"[1]": {"system": "B16", "test": "Induction of cell cycle arrest in mouse B16 cells assessed as accumulation at G0/G1 phase incubated for 24 hrs by PI staining based flow cytometry analysis (reference value: 56.59 %)"}, "[2]": {"system": "A-375", "test": "Induction of cell cycle arrest in human A-375 cells assessed as accumulation at G2/M phase incubated for 24 hrs by PI staining based flow cytometry analysis (reference value: 8.87 %)"}, "[3]": {"system": "A-375", "test": "Induction of cell cycle arrest in human A-375 cells assessed as accumulation at S phase incubated for 24 hrs by PI staining based flow cytometry analysis (reference value: 34.44 %)"}, "[4]": {"system": "B16", "test": "Induction of cell cycle arrest in mouse B16 cells assessed as accumulation at S phase incubated for 24 hrs by PI staining based flow cytometry analysis (reference value: 42.53 %)"}, "[5]": {"system": "A-375", "test": "Induction of cell cycle arrest in human A-375 cells assessed as accumulation at G0/G1 phase incubated for 24 hrs by PI staining based flow cytometry analysis (reference value: 56.69 %)"}, "[6]": {"system": "B16", "test": "Induction of cell cycle arrest in mouse B16 cells assessed as accumulation at G2/M phase incubated for 24 hrs by PI staining based flow cytometry analysis (reference value: 0.88 %)"}}, "data": [{"smiles": "N#C/C(=C\\c1ccc(O)c(O)c1)C(=O)NCc1ccccc1", "values": [{"measurement": "Activity", "setting": "[1]", "value": 82.17, "unit": "%"}, {"measurement": "Activity", "setting": "[2]", "value": 6.92, "unit": "%"}, {"measurement": "Activity", "setting": "[3]", "value": 31.61, "unit": "%"}, {"measurement": "Activity", "setting": "[4]", "value": 15.11, "unit": "%"}, {"measurement": "Activity", "setting": "[5]", "value": 61.48, "unit": "%"}, {"measurement": "Activity", "setting": "[6]", "value": 2.72, "unit": "%"}]}]}
